From BindingDB's records for patent US20250313563 (The Broad Institute, 2025)

Experiments:
[1] = biological target: Glycogen synthase kinase-3 alpha (Homo sapiens, UniProt P49840); test: TR-FRET Assay
How it was run: (§1)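 Enzyme and test compound were first incubated together for 30 minutes in assay buffer. The kinase reaction followed and was stopped with EDTA. The pSer641 signal was read by time-resolved FRET.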

[2] = biological target: Glycogen synthase kinase-3 beta (Homo sapiens, UniProt P49841); test: TR-FRET Assay
Glycogen synthase kinase-3 beta, sequence (P49841 whole entry): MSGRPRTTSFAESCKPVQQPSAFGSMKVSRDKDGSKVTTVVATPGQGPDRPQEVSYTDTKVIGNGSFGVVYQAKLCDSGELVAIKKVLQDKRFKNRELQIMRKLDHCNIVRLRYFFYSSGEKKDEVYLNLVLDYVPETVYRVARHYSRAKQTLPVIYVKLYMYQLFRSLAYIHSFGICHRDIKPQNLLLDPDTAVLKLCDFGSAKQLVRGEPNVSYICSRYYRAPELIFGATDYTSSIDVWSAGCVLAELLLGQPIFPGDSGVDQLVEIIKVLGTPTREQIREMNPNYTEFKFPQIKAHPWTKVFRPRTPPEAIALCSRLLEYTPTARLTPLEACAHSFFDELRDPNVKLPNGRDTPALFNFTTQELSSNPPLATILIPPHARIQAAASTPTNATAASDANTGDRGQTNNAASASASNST
How it was run: as §1

Glycogen synthase kinase-3 alpha, sequence (P49840 whole entry): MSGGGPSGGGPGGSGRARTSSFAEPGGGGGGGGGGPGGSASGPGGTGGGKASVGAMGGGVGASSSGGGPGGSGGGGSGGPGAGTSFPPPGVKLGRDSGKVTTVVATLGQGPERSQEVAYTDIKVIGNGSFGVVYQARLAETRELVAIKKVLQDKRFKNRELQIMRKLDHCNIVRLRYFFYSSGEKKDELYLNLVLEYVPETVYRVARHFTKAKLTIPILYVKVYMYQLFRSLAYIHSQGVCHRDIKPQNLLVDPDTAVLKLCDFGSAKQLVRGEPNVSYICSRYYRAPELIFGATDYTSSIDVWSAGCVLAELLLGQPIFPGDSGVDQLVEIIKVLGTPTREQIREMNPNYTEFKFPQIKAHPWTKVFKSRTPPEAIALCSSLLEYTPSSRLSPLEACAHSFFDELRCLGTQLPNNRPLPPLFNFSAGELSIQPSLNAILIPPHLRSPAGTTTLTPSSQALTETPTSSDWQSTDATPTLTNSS

Row | SMILES | IC50 [1] [nM] | IC50 [2] [nM]
1 | Cc1ccc(S(=O)(=O)N2CCC3(CC2)C2=C(N=NC2)NC2=C3C(=O)CC(C)(C)C2)c(C)c1 [US20250313563, Compound 947468] | < 100 | < 100
2 | CC1(C)CC(=O)C2=C(C1)NC1=C(CN=N1)C21CCN(S(=O)(=O)c2cccc3ncccc23)CC1 [US20250313563, Compound 947469] | < 100 | < 100
3 | CC1(C)CC(=O)C2=C(C1)NC1=C(CN=N1)C21CCN(S(=O)(=O)c2cccc3c2CCCC3)CC1 [US20250313563, Compound 947470] | < 100 | < 100
4 | Cc1ccc(C)c(S(=O)(=O)N2CCC3(CC2)C2=C(N=NC2)NC2=C3C(=O)CC(C)(C)C2)c1 [US20250313563, Compound 947471] | < 100 | 100 to 1000
5 | CC1(C)CC(=O)C2=C(C1)NC1=C(CN=N1)C21CCN(S(=O)(=O)c2cn3c(n2)CCCC3)CC1 [US20250313563, Compound 947472] | < 100 | 100 to 1000
6 | CC(C)c1ccccc1S(=O)(=O)N1CCC2(CC1)C1=C(N=NC1)NC1=C2C(=O)CC(C)(C)C1 [US20250313563, Compound 947473] | 100 to 1000 | 100 to 1000
7 | CC1(C)CC(=O)C2=C(C1)NC1=C(CN=N1)C21CCN(S(=O)(=O)c2cnn3c2CCCC3)CC1 [US20250313563, Compound 947474] | < 100 | < 100
8 | Cc1cc(S(=O)(=O)N2CCC3(CC2)C2=CN=NC2NC2=C3C(=O)CC(C)(C)C2)ccc1Cl (configuration not stated) [US20250313563, Compound 947475] | < 100 | < 100
9 | CC1(C)CC(=O)C2=C(C1)NC1=C(CN=N1)C21CCN(S(=O)(=O)C2=CC=C3CC=CC=C3N2)CC1 [US20250313563, Compound 947476] | < 100 | < 100
10 | COCCn1cc(S(=O)(=O)N2CCC3(CC2)C2=C(N=NC2)NC2=C3C(=O)CC(C)(C)C2)cn1 [US20250313563, Compound 947477] | < 100 | < 100
11 | COc1ccc(S(=O)(=O)N2CCC3(CC2)C2=C(N=NC2)NC2=C3C(=O)CC(C)(C)C2)cc1F [US20250313563, Compound 947478] | < 100 | < 100
12 | CC1(C)CC(=O)C2=C(C1)NC1=C(CN=N1)C21CCN(S(=O)(=O)c2ccccc2C#N)CC1 [US20250313563, Compound 947479] | < 100 | < 100
13 | CC1(C)CC(=O)C2=C(C1)NC1=C(CN=N1)C21CCN(S(=O)(=O)c2cnc3n2CCCC3)CC1 [US20250313563, Compound 947480] | < 100 | < 100
14 | Cc1cc(S(=O)(=O)N2CCC3(CC2)C2=C(N=NC2)NC2=C3C(=O)CC(C)(C)C2)ccn1 [US20250313563, Compound 947481] | < 100 | < 100
15 | Cc1ccc(S(=O)(=O)N2CCC3(CC2)C2=C(N=NC2)NC2=C3C(=O)CC(C)(C)C2)cn1 [US20250313563, Compound 947482] | < 100 | < 100
16 | CC1(C)CC(=O)C2=C(C1)NC1=C(CN=N1)C21CCN(S(=O)(=O)c2cnn3c2OCCC3)CC1 [US20250313563, Compound 947483] | < 100 | < 100
17 | CC1(C)CC(=O)C2=C(C1)NC1=C(CN=N1)C21CCN(S(=O)(=O)c2c(F)cc(F)cc2F)CC1 [US20250313563, Compound 947484] | < 100 | < 100
18 | CC1(C)CC(=O)C2=C(C1)NC1=C(CN=N1)C21COC2(CN(C(=O)C(F)F)C2)C1 (configuration not stated) [US20250313563, Compound 947485] | < 100 | < 100
19 | CC1(C)CC(=O)C2=C(C1)NC1=C(CN=N1)C21COC2(CN(C(=O)C3CCC(F)C3)C2)C1 (configuration not stated) [US20250313563, Compound 947486] | < 100 | < 100
20 | CC1(C)CC(=O)C2=C(C1)NC1=C(CN=N1)C21COC2(CN(C(=O)C3(F)CC3)C2)C1 (configuration not stated) [US20250313563, Compound 947487] | < 100 | < 100
21 | CCC1(c2cccc(-c3ccnc(C(C)(C)C)c3)c2)C2=CN=NC2NC2=C1C(=O)CC(C)(C)C2 (configuration not stated) [US20250313563, Compound 947490] | 100 to 1000 | 1000 to 5000
22 | CCC1(c2cccc(-c3c(C)cnn3C)c2)C2=CN=NC2NC2=C1C(=O)CC(C)(C)C2 (configuration not stated) [US20250313563, Compound 947491] | < 100 | < 100
23 | CCC1(c2cccc(-c3cnn(C)n3)c2)C2=CN=NC2NC2=C1C(=O)CC(C)(C)C2 (configuration not stated) [US20250313563, Compound 947492] | < 100 | 1000 to 5000
24 | CCc1cc(-c2cccc(C3(CC)C4=CN=NC4NC4=C3C(=O)CC(C)(C)C4)c2)ccn1 (configuration not stated) [US20250313563, Compound 947493] | < 100 | 100 to 1000
25 | CCC1(c2cccc(-c3cnn4c3CCC4)c2)C2=CN=NC2NC2=C1C(=O)CC(C)(C)C2 (configuration not stated) [US20250313563, Compound 947494] | < 100 | 100 to 1000
26 | CC[C@]1(c2cccc(Cc3ncccn3)c2)C2=CN=NC2NC2=C1C(=O)CC(C)(C)C2 (some centres not stated) [US20250313563, Compound 947498] | < 100 | < 100
